# Assay results as given in patent publication US9937183B2, “Antimicrobial compounds and methods of making and using the same” (priority 2013, dated 2018).
# Read-outs that look alike come from different tables or passages of the source.
# Assays:
# Assay type in all cases: cell-based
# [1] = tested on: E. coli ATCC25922; test: MIC, microtiter-based liquid assay (CLSI); details: Escherichia coli
# [2] = tested on: E. coli 1705878; test: MIC, microtiter-based liquid assay (CLSI); details: Escherichia coli, MDR strain
# [3] = tested on: E. coli MG1655 parent; test: MIC, microtiter-based liquid assay (CLSI); details: Escherichia coli
# [4] = tested on: E. coli CAG12184 TolC; test: MIC, microtiter-based liquid assay (CLSI); details: Escherichia coli, CAG12184TOLC
# [5] = tested on: S. pneumoniae 02J1175 Mef(A); test: MIC, microtiter-based liquid assay (CLSI); details: Streptococcus pneumoniae
# [6] = tested on: S. aureus 11540 MRSA; test: MIC, microtiter-based liquid assay (CLSI); details: Staphylococcus aureus
# [7] = tested on: K. pneumoniae 1705949; test: MIC, microtiter-based liquid assay (CLSI); details: Klebsiella pneumoniae, MDR strain
# [8] = tested on: K. pneumoniae 1705966; test: MIC, microtiter-based liquid assay (CLSI); details: Klebsiella pneumoniae
# [9] = tested on: A. baumannii 1705936; test: MIC, microtiter-based liquid assay (CLSI); details: Acinetobacter baumannii, MDR strain
# [10] = tested on: A. baumannii 1705943; test: MIC, microtiter-based liquid assay (CLSI); details: Acinetobacter baumannii
# [11] = tested on: P. aeruginosa ATCC27853; test: MIC, microtiter-based liquid assay (CLSI); details: Pseudomonas aeruginosa
# [12] = tested on: P. aeruginosa 1705886; test: MIC, microtiter-based liquid assay (CLSI); details: Pseudomonas aeruginosa
# [13] = tested on: P. aeruginosa 1705904; test: MIC, microtiter-based liquid assay (CLSI); details: Pseudomonas aeruginosa, MDR strain
# [14] = tested on: E. faecium A6349 VanA + LNZ-R; test: MIC, microtiter-based liquid assay (CLSI); details: Enterococcus faecium
# [15] = tested on: B. anthracis; test: microbe, parasite or virus in culture; details: Bacillus anthracis
# [16] = tested on: Y. pestis; test: microbe, parasite or virus in culture; details: Yersinia pestis
# [17] = tested on: B. mallei; test: microbe, parasite or virus in culture; details: Burkholderia mallei
# [18] = tested on: F. tularensis; test: microbe, parasite or virus in culture; details: Francisella tularensis
# [19] = tested on: B. pseudomallei; test: microbe, parasite or virus in culture; details: Burkholderia pseudomallei
smiles,measurement,setting,value
C[C@H](NCCCNC(=N)N)c1ccc(-n2cc3cc(-c4cc(CCC[C@@H](N)CF)cc(Cl)c4F)[nH]c3nc2=O)cc1 [Compound 17],MIC,"[1]; ATCC25922, read-out: MIC E. coli ATCC25922 + 50% HS",0.5 µg/mL
same,MIC,"[1]; ATCC25922, read-out: MIC E. coli ATCC25922",0.25 µg/mL
same,MIC,[2],2 µg/mL
same,MIC,[3],1 µg/mL
same,MIC,[4],0.125 µg/mL
same,MIC,[5],0.125 µg/mL
same,MIC,[6],0.25 µg/mL
same,MIC,[7],1 µg/mL
same,MIC,[8],0.125 µg/mL
same,MIC,[9],1 µg/mL
same,MIC,[10],0.25 µg/mL
same,MIC,[11],8 µg/mL
same,MIC,[12],4 µg/mL
same,MIC,[13],8 µg/mL
same,MIC,[14],0.5 µg/mL
same,MIC50,[15]; read-out: B. anthracis MIC50,0.25 µg/mL
same,MIC90,[15]; read-out: B. anthracis MIC90,0.25 µg/mL
same,MIC,[15]; read-out: B. anthracis MIC Range,0.03 to 0.5 µg/mL
same,MIC50,[16]; read-out: Y. pestis MIC50,0.25 µg/mL
same,MIC90,[16]; read-out: Y. pestis MIC90,0.5 µg/mL
same,MIC,[16]; read-out: Y. pestis MIC Range,0.03 to 0.5 µg/mL
same,MIC50,[17]; read-out: B. mallei MIC50,0.06 µg/mL
same,MIC90,[17]; read-out: B. mallei MIC90,0.25 µg/mL
same,MIC,[17]; read-out: B. mallei MIC Range,0.03 to 0.25 µg/mL
same,MIC50,[18]; read-out: F. tularensis MIC50,≤ 0.03 µg/mL
same,MIC90,[18]; read-out: F. tularensis MIC90,0.12 µg/mL
same,MIC,[18]; read-out: F. tularensis MIC Range,0.03 to 1 µg/mL
same,MIC50,[19]; read-out: B. pseudomallei MIC50,8 µg/mL
same,MIC90,[19]; read-out: B. pseudomallei MIC90,16 µg/mL
same,MIC,[19]; read-out: B. pseudomallei MIC Range,1 to 16 µg/mL
